Laboratory results taken from the NIST ThermoML archive (doi:10.1016/j.fluid.2019.03.023).
± gives the expanded uncertainty stated by the source.

Test: activity coefficient (dimensionless); of the first substance listed, at infinite dilution; xn = mol fraction of the nth substance listed
Conditions: 101.33 kPa, Liquid, Chromatography, x1 = 0

| SMILES | activity coefficient (313.15 K) | activity coefficient (323.15 K) | activity coefficient (333.15 K) | activity coefficient (343.15 K) |
| --- | --- | --- | --- | --- |
| CCO [ethanol] + CCCCCCCCCCCCCC[P+](CCCCCC)(CCCCCC)CCCCCC.N#C[N-]C#N | 0.339 ± 0.042 | 0.359 ± 0.043 | 0.383 ± 0.045 | 0.401 ± 0.047 |
| C=CCCC [1-pentene] + CCCCCCCCCCCCCC[P+](CCCCCC)(CCCCCC)CCCCCC.N#C[N-]C#N | 0.796 ± 0.082 | 0.858 ± 0.088 | 0.922 ± 0.094 | 0.994 ± 0.1 |
| CCCO [propan-1-ol] + CCCCCCCCCCCCCC[P+](CCCCCC)(CCCCCC)CCCCCC.N#C[N-]C#N | 0.396 ± 0.046 | 0.41 ± 0.047 | 0.424 ± 0.049 | 0.443 ± 0.05 |
| C=CCCCCC [1-heptene] + CCCCCCCCCCCCCC[P+](CCCCCC)(CCCCCC)CCCCCC.N#C[N-]C#N | 1.09 ± 0.11 | 1.13 ± 0.12 | 1.17 ± 0.12 | 1.22 ± 0.13 |
| C1CCOC1 [tetrahydrofuran] + CCCCCCCCCCCCCC[P+](CCCCCC)(CCCCCC)CCCCCC.N#C[N-]C#N | 0.351 ± 0.043 | 0.365 ± 0.044 | 0.384 ± 0.045 | 0.404 ± 0.047 |
| Cc1ccc(C)cc1 [1,4-dimethylbenzene] + CCCCCCCCCCCCCC[P+](CCCCCC)(CCCCCC)CCCCCC.N#C[N-]C#N | 0.602 ± 0.064 | 0.64 ± 0.068 | 0.68 ± 0.071 | 0.706 ± 0.074 |
| CO [methanol] + CCCCCCCCCCCCCC[P+](CCCCCC)(CCCCCC)CCCCCC.N#C[N-]C#N | 0.306 ± 0.04 | 0.323 ± 0.041 | 0.344 ± 0.042 | 0.361 ± 0.044 |
| O [water] + CCCCCCCCCCCCCC[P+](CCCCCC)(CCCCCC)CCCCCC.N#C[N-]C#N | 1.95 ± 0.2 | 1.82 ± 0.19 | 1.73 ± 0.18 | 1.6 ± 0.17 |
| CCCCCCC [heptane] + CCCCCCCCCCCCCC[P+](CCCCCC)(CCCCCC)CCCCCC.N#C[N-]C#N | 1.36 ± 0.14 | 1.43 ± 0.15 | 1.52 ± 0.16 | 1.61 ± 0.17 |
| C=CCCCCCCCC [1-decene] + CCCCCCCCCCCCCC[P+](CCCCCC)(CCCCCC)CCCCCC.N#C[N-]C#N | 1.58 ± 0.17 | 1.77 ± 0.18 | 1.98 ± 0.21 | 2.19 ± 0.23 |
| C=CCCCC [hex-1-ene] + CCCCCCCCCCCCCC[P+](CCCCCC)(CCCCCC)CCCCCC.N#C[N-]C#N | 0.915 ± 0.093 | 0.979 ± 0.1 | 1.06 ± 0.11 | 1.11 ± 0.11 |
| CC#N [acetonitrile] + CCCCCCCCCCCCCC[P+](CCCCCC)(CCCCCC)CCCCCC.N#C[N-]C#N | 0.574 ± 0.062 | 0.6 ± 0.064 | 0.624 ± 0.066 | 0.651 ± 0.069 |
| CCCCO [butan-1-ol] + CCCCCCCCCCCCCC[P+](CCCCCC)(CCCCCC)CCCCCC.N#C[N-]C#N | 0.421 ± 0.048 | 0.445 ± 0.05 | 0.453 ± 0.051 | 0.47 ± 0.052 |
| c1ccccc1 [benzene] + CCCCCCCCCCCCCC[P+](CCCCCC)(CCCCCC)CCCCCC.N#C[N-]C#N | 0.319 ± 0.04 | 0.363 ± 0.044 | 0.403 ± 0.047 | 0.44 ± 0.05 |
| CCC(C)(C)C [2,2-dimethylbutane] + CCCCCCCCCCCCCC[P+](CCCCCC)(CCCCCC)CCCCCC.N#C[N-]C#N | 1.11 ± 0.11 | 1.2 ± 0.12 | 1.28 ± 0.13 | 1.35 ± 0.14 |
| CCCCCCCCC [nonane] + CCCCCCCCCCCCCC[P+](CCCCCC)(CCCCCC)CCCCCC.N#C[N-]C#N | 1.8 ± 0.19 | 1.93 ± 0.2 | 2.09 ± 0.22 | 2.24 ± 0.23 |
